Assay results as given in patent US20120301468A1, “ANTI-MN ANTIBODIES AND METHODS OF USING SAME” (BAYER HEALTHCARE LLC, priority 2005, published 2012).

Assays:
[1] = tested on: low MN-expressing MIAPaCa2 pancreatic xenograft; assay: MIAPaCa2 xenograft model; assay type: in vivo, mice
Procedure: To better understand the relationship between MN expression and antitumor efficacy, xenograft efficacy studies were conducted using a low MN-expressing pancreatic model, MIAPaCa2 and high MN-expressing huMN-MIAPaCa2 model. This latter line was derived by engineering the MIAPaCa2 line to stably express MN. […] 3ee9/MMAE dosed at 10 mg/kg only produced 50% TGI.

[2] = tested on: 13 other carbonic anhydrases; assay: Binding to other carbonic anhydrases
[3] = tested on: MN-expressing cells (PC3 mm2); assay: Spindle formation / tubulin staining, Pc3 mm2; assay type: cell-based, human; settings: tubulin stained with fluorescence labeled antibody
Source text: (§1) The cytotoxic drug MMAE delivered by 3ee9/MMAE is a tubulin inhibitor that prevents spindle formation during cell mitosis resulting in G2/M arrest. The tubulin is stained with florescence labeled antibody. […] These studies confirmed that the antibody drug conjugate 3ee9/MMAE kills cell through targeted tubulin disruption.

MN-expressing MaTu cells = assay: FACS cell binding, MaTu cells; assay type: cell-based, human
Colo-205 CRC xenograft = assay: Colo-205 subcutaneous xenograft model
Source text: The in vivo anti-tumor effect of 3ee9/MMAE was examined in 6 different human xenograft tumor models. These models were established through subcutaneous implantation of human tumor cells into female athymic NCr (nu/nu) mice (Taconic, N.Y.). The human tumor xenograft models evaluated included the MaTu human mammary carcinoma model, the HT-29 and Colo-205 human colo-rectal carcinoma (CRC) models, PC3MM2 prostate carcinoma model, the HCT-15 multi-drug resistant (P-gp) CRC model, and the MiaPaCa2 human pancreatic model. PBS was used as a vehicle, and dosing solutions were prepared fresh daily. The dosing volume was 0.1 mL/10 g (10 mL/kg).
The length and width of each tumor were measured using an electronic caliper 2-3 times per week, and tumor weights (mg) were calculated based on the formula of [length (mm)×width (mm)^2]/2. All data, including daily observations, obtained throughout the course of the study were documented in Anti-tumor Data Acquisition System (ADAS). […] Tumor growth inhibition (TGI) was calculated as (1-T/C)×100, where T=final tumor weights from a treated group after the last dose, and C=final tumor weights from the control group after the last dose. In addition, anti-tumor efficacy was measured as the incidence of responses (or responders or regressions) defined as tumors with ≦50% of their initial size. A minimum duration of 7 days is required for a response to be considered durable.
The anti-tumor activity of 3ee9/MMAE was next evaluated against human prostate (PC-3 mm2) and CRC (Colo-205) tumor xenografts. Female NCr nu/nu mice were implanted subcutaneously (s.c.) either with 5×10^6 PC3 mm2 or Colo-205 cells. Treatment was initiated when tumors were of an average size of approximately 125-150 mg. The general health of mice was monitored and recorded daily. Tumor dimensions and body weights were recorded twice a week starting with the first day of treatment.
In the PC3 mm2 and Colo-205 studies, 3ee9/MMAE was administered intravenously (i.v.) once every 4th day for a total of 3 injections (Q4Dx3) at doses of 1, 3, 10 and 30 mg/kg and 1.25, 2.5, 5 and 10 mg/kg, respectively.
The feasibility of using 3ee9/MMAE in conjunction with other cancer chemotherapeutic agents was investigated. Xeloda® is used as first line treatment of patients with metastatic colorectal carcinoma. The activity and tolerability of combined therapy using 3ee9/MMAE and Xeloda® was evaluated. 3ee9/MMAE was administered i.v. on a Q4Dx3 schedule and at dose levels of 1.25, 2.5 and 10 mg/kg. Xeloda® was administered orally once daily for 9 days at dose levels of 250 and 500 mg/kg.

[4] = tested on: PC3 mm2 human prostate tumor xenograft; assay: PC3 mm2 subcutaneous xenograft model; assay type: in vivo, NCr nu/nu mice; settings: for animals showing responses: PC3MM2
Procedure: The in vivo anti-tumor effect of 3ee9/MMAE was examined in 6 different human xenograft tumor models. These models were established through subcutaneous implantation of human tumor cells into female athymic NCr (nu/nu) mice (Taconic, N.Y.). […] PBS was used as a vehicle, and dosing solutions were prepared fresh daily. The dosing volume was 0.1 mL/10 g (10 mL/kg).
The length and width of each tumor were measured using an electronic caliper 2-3 times per week, and tumor weights (mg) were calculated based on the formula of [length (mm)×width (mm)^2]/2. […] Tumor growth inhibition (TGI) was calculated as (1-T/C)×100, where T=final tumor weights from a treated group after the last dose, and C=final tumor weights from the control group after the last dose. In addition, anti-tumor efficacy was measured as the incidence of responses (or responders or regressions) defined as tumors with ≦50% of their initial size. A minimum duration of 7 days is required for a response to be considered durable.

MN-negative DLD cells = assay: FACS cell binding, DLD cells; assay type: cell-based
Procedure: Cells may be assayed for MN expression as a diagnostic tool. Adherent MN-expressing PC-3 mm2 cells and non-MN expressing DLD1 cells were detached from their flasks with 1:10 trypsin/Versene in PBS solution for 5 to 10 minutes. Cells were spun down (1000 rpm, 5 minutes), washed once with ice cold RPMI 10% FBS, and resuspended in ice-cold staining buffer (Ca^+ Mg^+-free PBS, 2% BSA, and 0.05% sodium azide) at 6×10^6 cells/ml. Primary antibody, human anti-MN IgG1, or control human IgG1 antibody at 25 μg/mL were incubated with 6×10^5 cells on ice for 1 hour. The unbound antibody was washed from the cells with the ice-cold staining buffer. The cells were fixed with 2% formaldehyde in PBS for 10 minutes, then washed twice with staining buffer. The cell pellet was resuspended in 100 μl ice cold staining buffer containing anti-human Alexa fluor 488 secondary antibody (final conc. 1:200, Molecular Probes/Invitrogen, Carlsbad, Calif.), and incubated on ice for 1 hour. The unbound antibody was washed from the cells two times with flow buffer (PBS containing 2% BSA), and the cells were resuspended in 1 mL flow buffer. FACS analysis of the resuspended cells was performed on a […] FACS Caliber instrument.
The MN antibody G250, a humanized IgG1 antibody, (Wilex) was used as a reference throughout the in vitro studies.

[5] = tested on: MN non-expressing cells (H460); assay: Spindle formation / tubulin staining, H460; assay type: cell-based; settings: tubulin stained with fluorescence labeled antibody
Source text: as §1

[6] = Colo-205, 1.25 mg/kg/inj Q4D × 3 IV
[7] = Colo-205, 2.5 mg/kg/inj Q4D × 3 IV
[8] = Colo-205, 10 mg/kg/inj Q4D × 3 IV

For “3ee9/MMAE: human anti-MN IgG1 antibody 3ee9 conjugated to Monomethylauristatin E (MMAE)”, the “effect in inhibiting growth” value [1] was “minimal effect”, the “binding to other carbonic anhydrases” value [2] was “no detectable binding” and the “effect on spindle formation” value [3] was “fragmented fibers resulting from tubulin binding with MMAE and prevention of normal spindle formation”. For the same substance, the “cell binding by FACS” value (MN-expressing MaTu cells) was “bind to MN-expressing MaTu cells”, the “% Inhibition (T/C) (d 17)” value (Colo-205 CRC xenograft; [6]) was 30.6% and the “% Regressions” value (Colo-205 CRC xenograft; [6]) was 0%. The “% Weight Loss (d 17)” value (Colo-205 CRC xenograft; [6]) was 0.5%, the TGI (Colo-205 CRC xenograft; Colo-205, 2.5 mg/kg i.v. Q4Dx3, end of dosing) was > 70% and the “% Inhibition (T/C) (d 17)” value (Colo-205 CRC xenograft; [7]) was 73%. For the same substance, the “% Regressions” value (Colo-205 CRC xenograft; [7]) was 0%, the “% Weight Loss (d 17)” value (Colo-205 CRC xenograft; [7]) was 0.1% and the “responses (regressions)” value (Colo-205 CRC xenograft; Colo-205, 5 mg/kg Q4Dx3) was 40%. For the same substance, the “responses (regressions)” value (Colo-205 CRC xenograft; Colo-205, 10 mg/kg Q4Dx3) was 80%, the “% Inhibition (T/C) (d 17)” value (Colo-205 CRC xenograft; [8]) was 96.2% and the “% Regressions” value (Colo-205 CRC xenograft; [8]) was 80%. The “% Weight Loss (d 17)” value (Colo-205 CRC xenograft; [8]) was 0.9%, the TGI (Colo-205 CRC xenograft; Colo-205, 5 and 10 mg/kg i.v. Q4Dx3, end of dosing) was > 90% and the TGI (Colo-205 CRC xenograft; Colo-205, alone 1.25 mg/kg i.v. Q4Dx3) was 31%. The TGI (Colo-205 CRC xenograft; Colo-205, alone 2.5 mg/kg i.v. Q4Dx3) was 73%, the response rate (Colo-205 CRC xenograft; Colo-205, alone 10 mg/kg) was 80% and the TGI (Colo-205 CRC xenograft; Colo-205, alone 10 mg/kg i.v. Q4Dx3) was 96%. The anti-tumor effect (Colo-205 CRC xenograft; Colo-205, lowest dose, 1 mg/kg) was “relatively ineffective”, the anti-tumor effects (Colo-205 CRC xenograft; Colo-205 human colo-rectal cancer xenograft model) was “anti-tumor effects were seen” and the anti-tumor effects ([4]; PC3-mm2 human prostate xenograft model) was “anti-tumor effects were seen”. The animals showing responses ([4]; 3 mg/kg) was 20%, the animals showing responses ([4]; 10 and 30 mg/kg i.v. Q4Dx3) was 100% and the tolerability ([4]; PC3 mm2 (1, 3, 10, 30 mg/kg) and Colo-205 (1.25, 2.5, 5, 10 mg/kg) studies, i.v. Q4Dx3) was “well tolerated at all doses evaluated”. The “cell binding by FACS” value (MN-negative DLD cells) was “not MN-negative DLD cells” and the “effect on spindle formation” value [5] was “No activity”.
